From US8034556B2, “Regulation of glucose and insulin levels by GnT-4 glycosyltransferase activity” (The Regents of the University of California, priority 2004, dated 2011)

Experiments:
[1] = Arginine tolerance test (serum insulin after L-arginine injection); type: in vivo; details: wild-type and GnT-4a deficient mice, fasted 16 hr, i.p. 3 g/Kg
Experimental: Mice were fasted for 16 hr followed by intraperitoneal (i.p.) glucose injection (1.5 g/Kg body weight). Blood samples were obtained at 0, 30, 60, 120, and 240 min after the injection and measurements of glucose and insulin was determined, the latter using a rat insulin ELISA assay with a mouse insulin standard (Crystal Chem., Chicago, Ill.). In testing insulin tolerance, mice were injected i.p. with 2 U/kg body weight human insulin (Carbiochem, La Jolla, Calif.) followed by blood collection at 0, 30, 60 120, and 240 min after injection, and serum glucose levels were analyzed. In arginine tolerance tests, mice were fasted overnight for 16 hr followed by i.p. injection (3 g/Kg body weight) of L-arginine (Sigma, St. Louis, Mo.). Blood samples were analyzed at 0, 2, 5, 15, and 30 min after the injection.

[2] = system: islet cells; experiment: In vitro islet cell glucose transport assay (2-NBDG uptake); type: cell-based, mouse; details: for Km: Lineweaver-Burke plot, 5 min incubation
Experimental: Mouse islet cells were obtained as described (Josefsen et al., J. Endocrinology 14: 145-154, 1996). Briefly, the pancreatic duct was ligated distally and injected with 3 mg/ml collagenase (Sigma), 5 μg/ml DNase (Sigma) and 5.6 mM glucose in Hank's balanced salt solution (HBSS)). The pancreas was removed and incubated for 14 min at 37° C. with shaking (200 strokes/min). The suspension was passed through a 16 gauge needle, centrifuged and suspended in the bottom layer of a discontinuous Ficoll gradient (11%, 20%, 23%, and 25%). After 15 min of centrifugation at 800× gravity at room temperature, cells were recovered from the interfaces and washed in HBSS, followed by hand selection of the islet-enriched interface under a stereomicroscope. Islets were gently dispersed after three consecutive washes with HBSS, then exposed to 0.5 U/ml of dispase (Calbiochem) in HBSS for 3 min. This was followed by gentle repetitive pipeting and a final wash with HBSS. The cells were cultured in RPMI-1640 medium containing 10% FCS, 2 mM L-glutamine, 0.1 mM 2-mercaptoethanol, and 11 mM glucose.
Glucose transport into islet cells was measured using 2-[N-(7-nitrobenz-2-oxa-1,3-diazol-4-yl)amino]-2-deoxy-D-glucose (2-NBDG, Molecular Probes) as described (Yamada et al., J. Biol. Chem. 275: 22278-22283, 2000) Islet cells were incubated in glucose free-KRBH for 20 min at 37° C., and then with various concentrations of 2-NBDG. To measure the time course of 2-NBDG transport, islet cells were incubated with 500 μM of 2-NBDG in KRBH in the presence or absence of 10 mM D-glucose for the indicated times (FIG. 2K), then washed three times with glucose free-KRBH, and intracellular fluorescence (excitation 485-495 nm, emission 515-525 nm) was measured using a VersaFluor Fluorometer System (Bio-Rad, Hercules, Calif.). Concentration dependence was determined in same conditions except that cells were incubated with 100 μM, 200 μM, 400 μM, 800 μM, 1.6 mM, 3.2 mM, or 6.4 mM of 2-NBDG for 5 min.

## N=C(N)NCCC[C@H](N)C(=O)O [L-arginine]
[1]
  Serum insulin concentrations after L-arginine treatment: robust increases in serum insulin concentrations

## O=[N+]([O-])c1ccc(N[C@H]2C(O)O[C@H](CO)[C@@H](O)[C@@H]2O)c2nonc12 (stereo partly drawn) [2-NBDG, 2-[N-(7-nitrobenz-2-oxa-1,3-diazol-4-yl)amino]-2-deoxy-D-glucose]
[2]; Mgat4a null islet cells
  Km: 9.1 mM
[2]; Mgat4a null islets
  Vmax of 2-NBDG uptake: 1.86 nmol/5 min/0.5×10^5 cells
[2]; wild-type islet cells
  Km: 9.53 mM
[2]; wild-type islets
  Vmax of 2-NBDG uptake: 16.95 nmol/5 min/0.5×10^5 cells
